From the NIST ThermoML archive (doi:10.1021/acs.jced.7b00201)

Test: xn = mol fraction of the nth substance listed
Details: 100 kPa, Liquid; for viscosity: Falling or rolling sphere viscometry; for mass density: Vibrating tube method

CCCCC1CCCCC1 [butylcyclohexane] + CCCCCCCCCCCC
Details	mass density [kg/m3]	viscosity [mPa·s]
293.15 K, x2 = 0	799.34	1.305
293.15 K, x2 = 0.1017	792.77	1.319
293.15 K, x2 = 0.1996	786.82	1.334
293.15 K, x2 = 0.2951	781.36	1.348
293.15 K, x2 = 0.4221	774.55	1.369
293.15 K, x2 = 0.5126	769.99	1.384
293.15 K, x2 = 0.6256	764.59	1.404
293.15 K, x2 = 0.7002	761.2	1.418
293.15 K, x2 = 0.7989	756.92	1.437
293.15 K, x2 = 0.9012	752.7	1.457
298.15 K, x2 = 0	795.59	1.202
298.15 K, x2 = 0.1017	789.05	1.215
298.15 K, x2 = 0.1996	783.12	1.228
298.15 K, x2 = 0.2951	777.68	1.241
298.15 K, x2 = 0.4221	770.9	1.258
298.15 K, x2 = 0.5126	766.35	1.272
298.15 K, x2 = 0.6256	760.96	1.289
298.15 K, x2 = 0.7002	757.57	1.3
298.15 K, x2 = 0.7989	753.3	1.318
298.15 K, x2 = 0.9012	749.09	1.335
303.15 K, x2 = 0	791.84	1.112
303.15 K, x2 = 0.1017	785.32	1.123
303.15 K, x2 = 0.1996	779.41	1.135
303.15 K, x2 = 0.2951	773.99	1.146
303.15 K, x2 = 0.4221	767.22	1.162
303.15 K, x2 = 0.5126	762.68	1.173
303.15 K, x2 = 0.6256	757.3	1.187
303.15 K, x2 = 0.7002	753.92	1.197
303.15 K, x2 = 0.7989	749.66	1.211
303.15 K, x2 = 0.9012	745.45	1.226
308.15 K, x2 = 0	788.07	1.033
308.15 K, x2 = 0.1017	781.58	1.043
308.15 K, x2 = 0.1996	775.69	1.053
308.15 K, x2 = 0.2951	770.28	1.063
308.15 K, x2 = 0.4221	763.53	1.076
308.15 K, x2 = 0.5126	759.01	1.086
308.15 K, x2 = 0.6256	753.64	1.1
308.15 K, x2 = 0.7002	750.27	1.108
308.15 K, x2 = 0.7989	746.01	1.122
308.15 K, x2 = 0.9012	741.81	1.137
313.15 K, x2 = 0	784.3	0.963
313.15 K, x2 = 0.1017	777.82	0.971
313.15 K, x2 = 0.1996	771.96	0.98
313.15 K, x2 = 0.2951	766.57	0.989
313.15 K, x2 = 0.4221	759.84	1.001
313.15 K, x2 = 0.5126	755.32	1.009
313.15 K, x2 = 0.6256	749.97	1.021
313.15 K, x2 = 0.7002	746.6	1.029
313.15 K, x2 = 0.7989	742.35	1.041
313.15 K, x2 = 0.9012	738.16	1.054
318.15 K, x2 = 0	780.52	0.901
318.15 K, x2 = 0.1017	774.07	0.908
318.15 K, x2 = 0.1996	768.22	0.915
318.15 K, x2 = 0.2951	762.85	0.923
318.15 K, x2 = 0.4221	756.14	0.934
318.15 K, x2 = 0.5126	751.63	0.942
318.15 K, x2 = 0.6256	746.29	0.952
318.15 K, x2 = 0.7002	742.93	0.959
318.15 K, x2 = 0.7989	738.69	0.969
318.15 K, x2 = 0.9012	734.5	0.98
323.15 K, x2 = 0	776.74	0.844
323.15 K, x2 = 0.1017	770.3	0.851
323.15 K, x2 = 0.1996	764.47	0.858
323.15 K, x2 = 0.2951	759.12	0.864
323.15 K, x2 = 0.4221	752.42	0.874
323.15 K, x2 = 0.5126	747.93	0.881
323.15 K, x2 = 0.6256	742.6	0.89
323.15 K, x2 = 0.7002	739.25	0.896
323.15 K, x2 = 0.7989	735.02	0.905
323.15 K, x2 = 0.9012	730.84	0.915
328.15 K, x2 = 0	772.93	0.794
328.15 K, x2 = 0.1017	766.52	0.8
328.15 K, x2 = 0.1996	760.71	0.806
328.15 K, x2 = 0.2951	755.37	0.812
328.15 K, x2 = 0.4221	748.7	0.821
328.15 K, x2 = 0.5126	744.22	0.827
328.15 K, x2 = 0.6256	738.9	0.834
328.15 K, x2 = 0.7002	735.56	0.84
328.15 K, x2 = 0.7989	731.33	0.848
328.15 K, x2 = 0.9012	727.16	0.858
333.15 K, x2 = 0	769.13	0.749
333.15 K, x2 = 0.1017	762.73	0.754
333.15 K, x2 = 0.1996	756.94	0.759
333.15 K, x2 = 0.2951	751.62	0.763
333.15 K, x2 = 0.4221	744.96	0.771
333.15 K, x2 = 0.5126	740.49	0.775
333.15 K, x2 = 0.6256	735.19	0.781
333.15 K, x2 = 0.7002	731.86	0.787
333.15 K, x2 = 0.7989	727.64	0.794
333.15 K, x2 = 0.9012	723.48	0.803
338.15 K, x2 = 0	765.3	0.708
338.15 K, x2 = 0.1017	758.93	0.712
338.15 K, x2 = 0.1996	753.16	0.716
338.15 K, x2 = 0.2951	747.85	0.721
338.15 K, x2 = 0.4221	741.21	0.728
338.15 K, x2 = 0.5126	736.75	0.733
338.15 K, x2 = 0.6256	731.47	0.738
338.15 K, x2 = 0.7002	728.14	0.742
338.15 K, x2 = 0.7989	723.94	0.749
338.15 K, x2 = 0.9012	719.78	0.756
343.15 K, x2 = 0	761.47	0.67
343.15 K, x2 = 0.1017	755.12	0.674
343.15 K, x2 = 0.1996	749.37	0.678
343.15 K, x2 = 0.2951	744.07	0.682
343.15 K, x2 = 0.4221	737.45	0.687
343.15 K, x2 = 0.5126	733	0.691
343.15 K, x2 = 0.6256	727.73	0.696
343.15 K, x2 = 0.7002	724.41	0.701
343.15 K, x2 = 0.7989	720.22	0.708
343.15 K, x2 = 0.9012	716.08	0.715
